According to US20020019421A1, “Compositions and therapy for substance addiction” (priority 2000, published 2002):
Where “and” joins values, the source holds several entries; their conditions need not be identical. Equal values may be shown once.

How the values were obtained:
[1] = system: striatal monoamine oxidase; assay: Inhibition of striatal monoamine oxidase in mice; format: in vivo
Method: (§1) The inhibitor of monoamine oxidase inhibitor is administered in an effective amount, which is that amount necessary to alleviate, reduce, attenuate, or eliminate the symptoms associated with the addictive disorder, disorder or condition to be treated or to slow disease progression. The monoamine oxidase inhibitor can also be administered prophylactically, in order to prevent symptoms associated with the addicitve disorder or disease, or to delay onset of symptoms associated withdrawal or abstinence. If more than one inhibitor of monoamine oxidase inhibitor is used, the effective amount is that amount of the combination of inhibitor of monoamine oxidase inhibitors that is necessary to alleviate, reduce, eliminate, prevent, or delay onset of the symptoms associated with withdrawal or abstinence. The effective amount will be determined on an individual basis, and will be based in part, on consideration of the particular monoamine oxidase inhibitor, the individual's size and gender, the severity of the symptoms to be treated, the result sought, and the disease, disorder or condition to be treated or prevented. […] The effective amount can be determined by one of ordinary skill in the art, employing such factors and using no more than routine experimentation.

[2] = system: intestinal monoamine oxidase; assay: Intestinal monoamine oxidase activity maintained in mice; format: in vivo; settings: 0.6 mg/kg
Method: as §1

smoking cessation = settings: cited from earlier work
[3] = system: subjects addicted to chronic cigarette smoking; assay: Experiment One: prospective open trial, self-reported cigarette consumption after quit day
Method: An experimental clinical trial was performed to assess the effect of selegiline alone and in combination with co-administration of nicotine.
In this prospective open trial subjects addicted to chronic cigarette smoking were administered either oral selegiline tablets (Jumex, Janssen, Belgium) 5 mg. b.i.d. or administered, for subjects 8 and 9, combined co-administration of both oral selegiline and nicotine replacement therapy via transdermal patch. Subjects were then monitored for their level of tobacco product consumption during the course of the next 8 weeks. The study protocol relied on the subjective report of the patient for measurement of the therapy outcome, i.e. reporting of level of cigarette consumption was elicited from the participating subjects at weekly intervals intervals throughout the course of the study, unless the patient was using nictotine replacement therapy. Initial, trial entry levels of craving were determined by administration of the Fagerström Tolerance Score exam, while initial level of mood was monitored by administering the Beck Depression Inventory.
Following one week on the medication, the subjects were instructed to quit smoking on “quit day”, as predetermined at the initiation of the study.

Compound: C#CCN(C)CCCOc1ccc(Cl)cc1Cl [clorgyline]
- preferred effective amount to inhibit 90% of striatal monoamine oxidase while maintaining 50% of intestinal activity [1]: 0.6 mg/kg
- inhibition of striatal monoamine oxidase ([1]; 0.6 mg/kg): 90%
- intestinal monoamine oxidase activity maintained [2]: 50%

Compound: CN1CCC[C@H]1c1cccnc1 [nicotine]
- success rate, nicotine patch alone (smoking cessation; N. Eng J Med 1999, 340:685-91): 9.8%
- success rate for smoking cessation, nicotine transdermal patch as sole therapy (smoking cessation; current best accepted / known efficacy): about 20%
- cigarettes consumed per week ([3]; week 1 from quit day, oral selegiline 5 mg b.i.d. and/or nicotine transdermal patch): 0 Cig/wk
- cigarettes consumed per week ([3]; week 2 from quit day): 0 Cig/wk
- cigarettes consumed per week ([3]; week 3 from quit day): 0 Cig/wk
- cigarettes consumed per week ([3]; week 4 from quit day): 0 Cig/wk
- cigarettes consumed per week ([3]; week 5 from quit day): 0 Cig/wk
- cigarettes consumed per week ([3]; week 6 from quit day): 21 Cig/wk
- cigarettes consumed per week ([3]; week 7 from quit day): 35 Cig/wk
- cigarettes consumed per week ([3]; week 8 from quit day): 60 Cig/wk

Compound: C#CCN(C)[C@H](C)Cc1ccccc1 [selegiline, (R)-(−)-N,2-dimethyl-N-2-propynylphenethylamine]
- efficacy: subjects treated successfully (abstaining or significantly reducing cigarette smoking) ([3]; during treatment, Table 2): about 30%
- outcome in words: effect on cigarette smoking ([3]; open trial, 8 weeks): effective treatment for substance addiction
- cigarettes consumed per week ([3]; week 1 from quit day, oral selegiline 5 mg b.i.d. and/or nicotine transdermal patch, listed as S): 0 Cig/wk (3×) and 21 Cig/wk and 140 Cig/wk and 210 Cig/wk and 35 Cig/wk
- cigarettes consumed per week ([3]; week 2 from quit day, listed as S): 0 Cig/wk (3×) and 21 Cig/wk and 70 Cig/wk
- cigarettes consumed per week ([3]; week 3 from quit day, listed as S): 0 Cig/wk (2×) and 25 Cig/wk and 3 Cig/wk
- cigarettes consumed per week ([3]; week 4 from quit day, listed as S): 0 Cig/wk (3×) and 25 Cig/wk
- cigarettes consumed per week ([3]; week 5 from quit day, listed as S): 0 Cig/wk (2×) and 25 Cig/wk
- cigarettes consumed per week ([3]; week 6 from quit day): 0 Cig/wk
- cigarettes consumed per week ([3]; week 7 from quit day, listed as S): 0 Cig/wk (2×) and 21 Cig/wk
- cigarettes consumed per week ([3]; week 8 from quit day, listed as S): 0 Cig/wk and 21 Cig/wk
- cigarettes consumed per week ([3]; week 9 from quit day): 21 Cig/wk
